In ChEMBL document CHEMBL3124761, “Synthesis and biological evaluation of N,N'-squaramides with high in vivo efficacy and low toxicity: toward a low-cost drug against Chagas disease” (J Med Chem, 2014):
Each block holds one molecule with its values, some of them ahead of it. Active and inactive are the calls of the source. No cut-off for these calls is given here.

Key:
[1] = Selectivity index, ratio of IC50 for African green monkey Vero cells to IC50 for amastigote stage of Trypanosoma cruzi IRHOD/CO/2008/SN3 infected in African green monkey Vero cells; assay type: toxicity, cell-based; settings: read-out: Ratio IC50
[2] = Selectivity index, ratio of IC50 for African green monkey Vero cells to IC50 for epimastigote stage of Trypanosoma cruzi IRHOD/CO/2008/SN3; assay type: toxicity, cell-based; settings: read-out: Ratio IC50
Vero = experiment: Cytotoxicity against African green monkey Vero cells assessed as cell viability after 72 hrs by propidium iodide/fluorescein diacetate staining-based flow cytometric analysis; settings: Chlorocebus sabaeus
Trypanosoma cruzi [3] = experiment: Antitrypanosomal activity against amastigote stage of Trypanosoma cruzi IRHOD/CO/2008/SN3 infected in African green monkey Vero cells assessed as parasite growth inhibition after 72 hrs by Giemsa staining-based microscopic analysis; assay type: functional, organism-based; settings: IRHOD/CO/2008/SN3, Vero
Trypanosoma cruzi [4] = experiment: Antitrypanosomal activity against epimastigote stage of Trypanosoma cruzi IRHOD/CO/2008/SN3 assessed as parasite growth inhibition after 72 hrs by Neubauer hemocytometric chamber analysis; assay type: functional, organism-based; settings: IRHOD/CO/2008/SN3, 72 h
Trypanosoma cruzi [5] = experiment: Trypanocidal activity against metacyclic trypomastigote stage of Trypanosoma cruzi infected in BALB/c albino mouse acute chagas disease model assessed as inhibition of parasitemia at 25 mg/kg, ip administered on day 7 to 12 post-infection measured every 2 days until day 40 […] relative to control; assay type: functional; settings: route intraperitoneal
Trypanosoma cruzi [6] = experiment: Trypanocidal activity against metacyclic trypomastigote stage of Trypanosoma cruzi infected in BALB/c albino mouse acute chagas disease model assessed as reduction of parasite burden at 25 mg/kg, ip administered on day 7 to 12 post-infection measured on day 14 by ELISA; assay type: functional, organism-based; parameters: dose 25 mg/kg
Trypanosoma cruzi [7] = experiment: (§1) Antitrypanosomal activity against trypomastigote stage of Trypanosoma cruzi IRHOD/CO/2008/SN3 assessed as reduction of trypomastigote number per mililiter of culture medium at IC25 preincubated for 12 hrs followed by compound washout measured every 48 hrs for 10 days by Neubauer hemocytometric chamber analysis relative to control; assay type: functional
Trypanosoma cruzi [8] = experiment: as §1, with “amastigote” for “trypomastigote”, “IRHOD/CO/2008/SN3 infected in African green monkey Vero cells” for “IRHOD/CO/2008/SN3”, “cell” for “mililiter of culture medium”; assay type: functional
Trypanosoma cruzi [9] = experiment: Antitrypanosomal activity against amastigote stage of Trypanosoma cruzi IRHOD/CO/2008/SN3 infected in African green monkey Vero cells assessed as decrease in infection rate at IC25 preincubated for 12 hrs followed by compound washout measured every 48 hrs for 10 days by Neubauer hemocytometric chamber analysis relative to control; assay type: functional
Mus musculus [10] = experiment: Toxicity in BALB/c albino mouse infected with blood trypomastigote stage of Trypanosoma cruzi assessed as change in alkaline phosphatase level in serum at 25 mg/kg, ip administered on day 7 to 12 post-infection measured after day 120 relative to control; assay type: organism-based; parameters: dose 25 mg/kg, route intraperitoneal; settings: in vivo
Mus musculus [11] = experiment: Toxicity in BALB/c albino mouse infected with blood trypomastigote stage of Trypanosoma cruzi assessed as change in ALT/GPT level in serum at 25 mg/kg, ip administered on day 7 to 12 post-infection measured after day 120 relative to control; assay type: organism-based; parameters: dose 25 mg/kg, route intraperitoneal; settings: in vivo
Mus musculus [12] = experiment: Toxicity in BALB/c albino mouse infected with blood trypomastigote stage of Trypanosoma cruzi assessed as increase in AST/GOT level in serum at 25 mg/kg, ip administered on day 7 to 12 post-infection measured after day 120 relative to control; assay type: organism-based; parameters: dose 25 mg/kg, route intraperitoneal; settings: in vivo
Mus musculus [13] = experiment: Toxicity in BALB/c albino mouse infected with blood trypomastigote stage of Trypanosoma cruzi assessed as increase in total bilirubin level in serum at 25 mg/kg, ip administered on day 7 to 12 post-infection measured after day 120 relative to control; assay type: organism-based; parameters: dose 25 mg/kg, route intraperitoneal; settings: in vivo
Mus musculus [14] = experiment: Toxicity in BALB/c albino mouse infected with blood trypomastigote stage of Trypanosoma cruzi assessed as increase in LDH level in serum at 25 mg/kg, ip administered on day 7 to 12 post-infection measured after day 120 relative to control; assay type: organism-based; parameters: dose 25 mg/kg, route intraperitoneal; settings: in vivo
Mus musculus [15] = experiment: Toxicity in BALB/c albino mouse infected with blood trypomastigote stage of Trypanosoma cruzi assessed as change in creatinephophokinase-MB level in serum at 25 mg/kg, ip administered on day 7 to 12 post-infection measured after day 120 relative to control; assay type: organism-based; parameters: dose 25 mg/kg, route intraperitoneal; settings: in vivo
Mus musculus [16] = experiment: Toxicity in BALB/c albino mouse infected with blood trypomastigote stage of Trypanosoma cruzi assessed as increase in uric acid level in serum at 25 mg/kg, ip administered on day 7 to 12 post-infection measured after day 120 relative to control; assay type: organism-based; parameters: dose 25 mg/kg, route intraperitoneal; settings: in vivo
Mus musculus [17] = experiment: Toxicity in BALB/c albino mouse infected with blood trypomastigote stage of Trypanosoma cruzi assessed as change in urea level in serum at 25 mg/kg, ip administered on day 7 to 12 post-infection measured after day 120 relative to control; assay type: organism-based; parameters: dose 25 mg/kg, route intraperitoneal; settings: in vivo
Mus musculus [18] = experiment: Toxicity in BALB/c albino mouse assessed as mortality at 25 mg/kg, ip administered for 5 days; assay type: organism-based; parameters: dose 25 mg/kg, route intraperitoneal; settings: in vivo, 120 h
Trypanosoma cruzi [19] = experiment: Antitrypanosomal activity against epimastigote stage of Trypanosoma cruzi IRHOD/CO/2008/SN3 assessed as formation of electron-dense vacuoles at IC25 after 72 hrs by TEM analysis; assay type: functional, organism-based
Trypanosoma cruzi [20] = experiment: Antitrypanosomal activity against epimastigote stage of Trypanosoma cruzi IRHOD/CO/2008/SN3 assessed as disappearance of microtubular structure at IC25 after 72 hrs by TEM analysis; assay type: functional, organism-based
Trypanosoma cruzi [21] = experiment: Antitrypanosomal activity against epimastigote stage of Trypanosoma cruzi IRHOD/CO/2008/SN3 assessed as partially scalloped parasite outer membrane at IC25 after 72 hrs by TEM analysis; assay type: functional, organism-based
Trypanosoma cruzi [22] = experiment: Antitrypanosomal activity against epimastigote stage of Trypanosoma cruzi IRHOD/CO/2008/SN3 assessed as discontinuation of parasite outer membrane at IC25 after 72 hrs by TEM analysis; assay type: functional, organism-based
Trypanosoma cruzi [23] = experiment: Antitrypanosomal activity against epimastigote stage of Trypanosoma cruzi IRHOD/CO/2008/SN3 assessed as mitochondrial swelling with rupture of membrane at IC25 after 72 hrs by TEM analysis; assay type: functional, organism-based
Trypanosoma cruzi [24] = experiment: Antitrypanosomal activity against epimastigote stage of Trypanosoma cruzi IRHOD/CO/2008/SN3 assessed as change in excreted succinate level at IC25 after 96 hrs by 1H NMR analysis relative to control; assay type: functional
Trypanosoma cruzi [25] = experiment: Antitrypanosomal activity against epimastigote stage of Trypanosoma cruzi IRHOD/CO/2008/SN3 assessed as change in excreted pyruvate level at IC25 after 96 hrs by 1H NMR analysis relative to control; assay type: functional
Trypanosoma cruzi [26] = experiment: Antitrypanosomal activity against epimastigote stage of Trypanosoma cruzi IRHOD/CO/2008/SN3 assessed as change in excreted acetate level at IC25 after 96 hrs by 1H NMR analysis relative to control; assay type: functional
Trypanosoma cruzi [27] = experiment: Antitrypanosomal activity against epimastigote stage of Trypanosoma cruzi IRHOD/CO/2008/SN3 assessed as change in excreted alanine level at IC25 after 96 hrs by 1H NMR analysis relative to control; assay type: functional
Trypanosoma cruzi [28] = experiment: Antitrypanosomal activity against epimastigote stage of Trypanosoma cruzi IRHOD/CO/2008/SN3 assessed as change in excreted lactate level at IC25 after 96 hrs by 1H NMR analysis relative to control; assay type: functional

SMILES: O=C(Cn1ccnc1[N+](=O)[O-])NCc1ccccc1 [BENZNIDAZOLE]
- inhibition in vivo at 25 mg/kg (Trypanosoma cruzi [5]): 26%
- Activity (Trypanosoma cruzi [6]): Active
- inhibition (INH) (Trypanosoma cruzi [7]): 21%
- inhibition (INH) (Trypanosoma cruzi [8]): 15%
- inhibition (INH) (Trypanosoma cruzi [9]): 20%

SMILES: C[N+](C)(C)CCNc1c(NCc2ccccc2)c(=O)c1=O
- selectivity ratio [1]: 1.9
- selectivity ratio [2]: 1.2
- IC50 (Vero): 74.2 µM
- IC50 (Trypanosoma cruzi [3]): 39.2 µM
- IC50 (Trypanosoma cruzi [4]): 60.8 µM

SMILES: C[N+](C)(C)CCNc1c(NCc2cccc(CNc3c(NCC[N+](C)(C)C)c(=O)c3=O)c2)c(=O)c1=O
- selectivity ratio [1]: 1.7
- selectivity ratio [2]: 0.6
- IC50 (Vero): 73.1 µM
- IC50 (Trypanosoma cruzi [3]): 43.9 µM
- IC50 (Trypanosoma cruzi [4]): 119 µM

SMILES: NCc1ccc(Nc2c(O)c(=O)c2=O)cc1
- selectivity ratio [1]: 0.5
- selectivity ratio [2]: 0.4
- IC50 (Vero): 36.6 µM
- IC50 (Trypanosoma cruzi [3]): 72.6 µM
- IC50 (Trypanosoma cruzi [4]): 89.1 µM

SMILES: CCCCNc1c(NCCN(C)C)c(=O)c1=O
- Activity (Mus musculus [10]): < 10%
- Activity (Mus musculus [11]): < 10%
- Activity (Mus musculus [12]): 40%
- Activity (Mus musculus [13]): 40%
- Activity (Mus musculus [14]): 40%
- Activity (Mus musculus [15]): < 10%
- Activity (Mus musculus [16]): 30%
- Activity (Mus musculus [17]): < 10%
- inhibition in vivo at 25 mg/kg (Trypanosoma cruzi [5]): 31%
- Activity (Trypanosoma cruzi [6]): Active
- Activity (Mus musculus [18]): Non-toxic
- inhibition (INH) (Trypanosoma cruzi [7]): 18%
- inhibition (INH) (Trypanosoma cruzi [8]): 35%
- inhibition (INH) (Trypanosoma cruzi [9]): 35%
- selectivity ratio [1]: 28
- selectivity ratio [2]: 24.8
- IC50 (Vero): 260 µM
- IC50 (Trypanosoma cruzi [3]): 9.3 µM
- IC50 (Trypanosoma cruzi [4]): 10.5 µM
- Activity (Trypanosoma cruzi [19]): Active
- Activity (Trypanosoma cruzi [20]): Active
- Activity (Trypanosoma cruzi [21]): Active
- Activity (Trypanosoma cruzi [22]): Active
- Activity (Trypanosoma cruzi [23]): Active
- Activity (Trypanosoma cruzi [24]): -28.3%
- Activity (Trypanosoma cruzi [25]): -11.1%
- Activity (Trypanosoma cruzi [26]): -18.6%
- Activity (Trypanosoma cruzi [27]): -11.1%
- Activity (Trypanosoma cruzi [28]): -23.9%

More lines, in order of falling IC50 (Trypanosoma cruzi [3]), values ahead:

- IC50 (Trypanosoma cruzi [3]): 38.5 µM
- IC50 (Trypanosoma cruzi [4]): 107 µM
SMILES: CCCCNc1c(NCC[N+](C)(C)C)c(=O)c1=O
- selectivity ratio [1]: 1.5
- selectivity ratio [2]: 0.5
- IC50 (Vero): 57.6 µM

- IC50 (Trypanosoma cruzi [3]): 31.2 µM
- IC50 (Trypanosoma cruzi [4]): 21.8 µM
SMILES: CN1CCCNc2c(c(=O)c2=O)NCCCN(C)CCCNc2c(c(=O)c2=O)NCCC1
- selectivity ratio [1]: 3.5
- selectivity ratio [2]: 5.1
- IC50 (Vero): 111 µM

- IC50 (Trypanosoma cruzi [3]): 26.3 µM
- IC50 (Trypanosoma cruzi [4]): 44.9 µM
SMILES: CCCCCCCCCCCCCCCCNc1c(NCC[N+](C)(C)C)c(=O)c1=O
- selectivity ratio [1]: 5.7
- selectivity ratio [2]: 3.4
- IC50 (Vero): 151 µM

- IC50 (Trypanosoma cruzi [3]): 23.8 µM
- IC50 (Trypanosoma cruzi [4]): 35.7 µM
SMILES: CCCCNc1c(NCC(=O)O)c(=O)c1=O
- selectivity ratio [1]: 2.3
- selectivity ratio [2]: 1.5
- IC50 (Vero): 54.8 µM
